Source: ChEMBL document CHEMBL2074505, “Imaging reversal of multidrug resistance in living mice with bioluminescence: MDR1 P-glycoprotein transports coelenterazine” (Proc Natl Acad Sci U S A, 2004)

Biological target: ATP-dependent translocase ABCB1 (Homo sapiens, UniProt P08183)
Test: TP_TRANSPORTER: efflux in KB 8-5-11 Rluc cells
Type: functional, cell-based

Sequence of ATP-dependent translocase ABCB1 (P08183 whole entry): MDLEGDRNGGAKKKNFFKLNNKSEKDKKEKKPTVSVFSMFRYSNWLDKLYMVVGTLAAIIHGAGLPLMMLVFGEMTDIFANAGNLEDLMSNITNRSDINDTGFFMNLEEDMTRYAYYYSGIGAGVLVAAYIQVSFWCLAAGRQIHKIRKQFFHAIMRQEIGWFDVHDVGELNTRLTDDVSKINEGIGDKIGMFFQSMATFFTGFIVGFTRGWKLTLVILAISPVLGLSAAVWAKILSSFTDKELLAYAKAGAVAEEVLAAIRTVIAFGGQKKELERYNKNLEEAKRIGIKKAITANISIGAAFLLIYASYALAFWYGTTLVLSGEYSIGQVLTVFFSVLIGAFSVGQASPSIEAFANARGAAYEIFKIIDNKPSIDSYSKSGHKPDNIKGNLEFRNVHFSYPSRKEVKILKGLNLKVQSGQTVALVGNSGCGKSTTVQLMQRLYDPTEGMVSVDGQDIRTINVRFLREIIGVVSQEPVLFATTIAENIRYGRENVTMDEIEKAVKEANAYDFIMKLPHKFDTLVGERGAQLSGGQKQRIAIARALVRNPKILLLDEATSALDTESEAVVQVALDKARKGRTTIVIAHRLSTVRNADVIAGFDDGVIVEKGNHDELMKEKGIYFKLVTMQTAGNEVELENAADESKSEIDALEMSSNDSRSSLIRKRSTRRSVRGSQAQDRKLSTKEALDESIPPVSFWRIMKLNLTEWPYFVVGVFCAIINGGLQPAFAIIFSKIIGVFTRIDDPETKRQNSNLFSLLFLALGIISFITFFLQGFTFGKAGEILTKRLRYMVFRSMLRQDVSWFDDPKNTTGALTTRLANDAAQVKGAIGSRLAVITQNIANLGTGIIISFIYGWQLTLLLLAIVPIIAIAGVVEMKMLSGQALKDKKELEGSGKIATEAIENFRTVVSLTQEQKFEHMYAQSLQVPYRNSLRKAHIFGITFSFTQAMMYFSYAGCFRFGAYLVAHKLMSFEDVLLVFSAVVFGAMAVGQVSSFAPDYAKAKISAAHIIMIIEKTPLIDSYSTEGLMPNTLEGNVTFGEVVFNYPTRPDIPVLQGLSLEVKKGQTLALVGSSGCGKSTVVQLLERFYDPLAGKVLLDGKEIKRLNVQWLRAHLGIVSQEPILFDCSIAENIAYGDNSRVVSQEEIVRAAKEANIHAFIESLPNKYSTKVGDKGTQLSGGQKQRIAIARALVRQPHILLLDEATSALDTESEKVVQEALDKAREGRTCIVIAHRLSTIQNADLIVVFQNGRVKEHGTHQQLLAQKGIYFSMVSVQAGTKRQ

EC50: 147 nM
Compound: Oc1ccc(Cc2nc3c(Cc4ccccc4)nc(-c4ccc(O)cc4)cn3c2O)cc1 [COELENTERAZINE]
